According to US20250154180A1, “CRK-LIKE (CRKL) ADAPTOR PROTEIN INHIBITORS AND METHODS OF MAKING AND USING THE SAME” (Rutgers, The State University of New Jersey, priority 2022, published 2025):
Read-outs that look alike come from different tables or passages of the source.

Experiments:
[1] = test system: MDA-MB-231 cells; assay: XTT cell viability, MDA-MB-231; assay type: cell-based; conditions: 24 and 48 hours
Procedure: (§1) FIGS. 8A-8C show results using MDA-MB-231 cells (FIG. 8A) or BXPC3 cells (FIG. 8B), wherein the cells were treated with 5 μM of NC5, Compound III (referred to as “NC5-140-1” in FIGS. 8A-8C), and Compound I (referred to as “NC5-140-2” in FIGS. 8A-8C) for 24-48 hours, wherein the XTT assay was used to determine cell viability. The symbol indicates the significance of NC5 vs. Compounds I and/or III; *p<0.05. Data represent mean±SEM.
(§2) Compound embodiments, compound III and compound I, were also made and evaluated. TNBC cells and PDAC cells were treated with a serial dose of original NC5 and modified NC5 derivatives for 24 and 48 hours. The cell viability will be measured by XTT assay. […] Compound III is referred to as “NC5-140-1” and Compound I is referred to as “NC5-140-2” in FIGS. 8A-8C.

[2] = Thermodynamic solubility; assay type: physicochemical; conditions: thermodynamic from solid
Procedure: In this example, solubility measurement assays were performed using a phosphate buffer (also referred to as “PB”) system and a water system to evaluate thermodynamic solubility. The PB system was at a pH of 7.4 to mimic in vivo environments. For the PB system, the values were determined to be NC5: Thermodynamic Solubility pH=7.4<0.42 μg/mL; Compound III: Thermodynamic Solubility pH=7.4<0.48 μg/mL; and Compound I: Thermodynamic Solubility pH=7.4<0.48 μg/mL. Results for the water assay were as follows: NC5: Thermodynamic Solubility Water<0.42 μg/mL; Compound III: Thermodynamic Solubility Water<0.48 μg/mL; and Compound I: Thermodynamic Solubility Water<0.48 μg/mL.

[3] = test system: Sk-Hep1 tumor; assay: HCC Sk-Hep1 xenograft model; assay type: in vivo, NSG mice; conditions: four-group study, 5.0 μg/g oral gavage
Description: To further test whether the tumor growth inhibition effect of NC5 applied to other solid tumors, the HCC-Sk-Hep1cell line and PDAC-BXPC3 cell line xenograft models were used. Subcutaneous injection of 1.5×10^6 SK-Hep1 or BXPC3 cells in NSG mice, Six-ten days after tumor cell injection, the palpable tumor in NSG mice was confirmed.
(§3) To test the effects of the disclosed compounds on the xenograft mouse models, the HCC-Sk-Hep1 cell line xenograft model in NSG mice and 4T1-Luc orthotopic syngeneic breast tumor model in Balb/c mice was used. After confirming the palpable tumor in NSG or Balb/c mice. […] Compound III is referred to as “NC5-140-1” and Compound I is referred to as “NC5-140-2” in FIGS. 11A-11C.

[4] = test system: PBNK cells killing activity towards MDA-MB-231; assay: Cr51 release assay, PBNK killing of MDA-MB-231; assay type: cell-based; conditions: 1 uM overnight
Procedure: (§4) PBNK cells were incubated with 1 uM NC5 or Compound III overnight, then cells were harvested for Cr51 release assay to check cell cytotoxicity. […] The star symbol indicates the significance of vehicle control vs. NC5 of the indicated E:T ratios. *p<0.05, **p<0.01, n=3.

[5] = test system: MDA468 cell line; assay: CCK-8 cell viability, MDA468; assay type: cell-based; conditions: 1 uM, 5 uM, 10 uM; 48 hours
Procedure: (§5) In this example, activities of NC5, Compound III, and the known chemotherapeutic, Sorafenib, were evaluated in HepG2, SKHep1, Huh7, and MDA468 cell lines. Cells from each cell line were collected and seeded at 5,000 cells/well in 96-well plates. The cells were incubated for 24 hours before the addition of either DMSO control or drug at various concentrations. After an additional 48 hours of incubation, 3 μL of CCK-8 was added to every well and incubated at 37° C. for 3 hours. Absorbance was measured at 460 nm in a plate reader. Cells from each cell line were treated with NC5 and Compound III at various concentrations (1 uM, 5 uM, 10 uM). The related absorbance was normalized and plotted as line graphs. p-values were determined through two tails student t-tests (*=p<0.5, **=p<0.01, ***=p<0.001).

[6] = test system: AML cell line (MoLM-13); assay: CCK-8 cell viability, MoLM-13; assay type: cell-based, human; conditions: 1 uM, 5 uM, 10 uM; 48 hours
Procedure: In this example, activities of NC5, Compound III, and the known chemotherapeutic, Cytarabine, were evaluated in the AML cell line (MoLM-13). MoLM-13 cells were collected and seeded at 5,000 cells/well in 96-well plates. The cells were incubated for 24 hours before the addition of either DMSO control or drug at various concentrations. After an additional 48 hours of incubation, 3 μL of CCK-8 was added to every well and incubated at 37° C. for 3 hours. Absorbance was measured at 460 nm in a plate reader. […] The related absorbance was normalized and plotted as line graphs. p-values were determined through two tails student t-tests (*=p<0.5, **=p<0.01, ***=p<0.001).

[7] = test system: Sk-Hep1 cells; assay: Growth inhibition of Sk-Hep1 cells (cell culture images); assay type: cell-based; conditions: 5 μM, 24 hours
[8] = test system: 4T1 breast tumor; assay: 4T1-Luc orthotopic syngeneic breast tumor model; assay type: in vivo, Balb/c mice; conditions: 5.0 μg/g oral gavage
Description: Syngeneic orthotopic 4T1 breast tumor-bearing mouse model was established by inoculating 5×10^4 4T1-Luc cells mixed with Matrigel were into the left inguinal fat pad of Balb/c mice from Jackson Laboratories. This orthotopic syngeneic breast tumor model is a tool for preclinical testing of anti-cancer drugs or immunotherapy that require an intact immune system to elicit activity.
as §3

[9] = test system: Huh7 cell line; assay: CCK-8 cell viability, Huh7; assay type: cell-based; conditions: 1 uM, 5 uM, 10 uM; 48 hours
Procedure: as §5

[10] = test system: HepG2 cell line; assay: CCK-8 cell viability, HepG2; assay type: cell-based; conditions: 1 uM, 5 uM, 10 uM; 48 hours
Procedure: as §5

[11] = test system: SKHep1 cell line; assay: CCK-8 cell viability, SKHep1; assay type: cell-based; conditions: 1 uM, 5 uM, 10 uM; 48 hours
Procedure: as §5

[12] = test system: PBNK cells killing activity towards SK-Hep1; assay: Cr51 release assay, PBNK killing of SK-Hep1; assay type: cell-based; conditions: 1 uM overnight
Procedure: as §4

[13] = test system: pCrkL (T207) in Sk-Hep1 cells; assay: Flow cytometry of H2O2-induced pCrkL, Sk-Hep1; assay type: cell-based; conditions: 50 uM H2O2 1 hour, then 10 uM compound 24 hours
Procedure: In this example, Sk-Hep1 cells were pretreated with 50 uM H2O2 for 1 hour to induce activation of pCrkL and were then incubated with 10 uM NC5 or Compound III for 24 hours. pCrkL (T207) expression was determined by flow cytometry.

[14] = test system: BXPC3 cells; assay: XTT cell viability, BXPC3; assay type: cell-based; conditions: 24 and 48 hours
Procedure: as §1, §2

Structure (SMILES): CC(C)=CCc1c2c(c3occ(-c4ccc5c(c4)OS(=O)(=O)O5)c(=O)c3c1O)C=CC(C)(C)O2 [Compound III]
- toxic effect compared with NC5 (XTT viability) [1]: comparable toxic effect as NC5
- solubility thermodynamic ([2]; aqueous buffer, phosphate buffer (PB) system, pH 7.4, read-out: Thermodynamic Solubility pH=7.4): < 0.48 µg/mL
- solubility thermodynamic ([2]; water system, read-out: Thermodynamic Solubility Water): < 0.48 µg/mL
- tumor growth [3]: inhibit tumor growth
- median survival ([3]; vehicle 26 days): 34.5 days
- PBNK cells killing activity (Cr51 release) [4]: increased PBNK cells killing activity
- cell viability (CCK-8) [5]: decreased cell viability significantly
- cell viability (CCK-8) [6]: decrease cell viability significantly
- toxic effect compared with NC5 (growth inhibition) [7]: better toxic effect than NC5
- tumor growth [8]: steady growth inhibition
- median survival ([8]; vehicle 25 days): 39.5 days
- cell viability (CCK-8) [9]: decreased cell viability significantly
- cell viability (CCK-8) [10]: decreased cell viability significantly
- cell viability (CCK-8) [11]: decreased cell viability significantly
- PBNK cells killing activity (Cr51 release) [12]: increased PBNK cells killing activity
- H2O2 induced pCrkL protein levels [13]: inhibited H2O2 induced pCrkL protein levels
- toxic effect compared with NC5 (XTT viability) [14]: better toxic effect than NC5
